Experimental data from ChEMBL document CHEMBL1121995, “Crystal structure and anti herpes simplex virus activity of 2,2'-anhydro-1-beta-D-arabinofuranosylthymine” (1982).

Columns and labels:
Format in all cases: functional
[1] = test system: Vero; assay: Percentage inhibition against Vero cells at a concentration of 200 uM; conditions: Chlorocebus sabaeus
[2] = test system: Vero; assay: Dose of compound required to reduced HSV-1 induced cytopathogenicity in vero cells; conditions: Chlorocebus sabaeus, read-out: ED50 (the source's name)
[3] = test system: Vero; assay: Percentage inhibition against Vero cells at a concentration of 600 uM; conditions: Chlorocebus sabaeus

Work on Cc1cn(C2O[C@H](CO)[C@@H](O)[C@@H]2O)c(=O)n(C)c1=O (stereo partly drawn) yielded an inhibition at 200 µM [1] of 40%, an EC50 [2] of 0.14 µM and an inhibition at 600 µM [3] of 59%.
